Results as given in PubChem BioAssay AID1919006 (Molecular Pharmacology Branch, DTP, NCI, 2023).

System: 885512-296-R-J2-PDC complex spheroid growth, % test/control
Test: Anticancer human tumor 885512-296-R-J2-PDC patient-derived breast carcinoma cell line growth inhibition [AhR]
Details: for IC50: curve of first compound; for viability, T/C: stronger effect = lower value
How it was run: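 Agents were dosed in half-log steps down from roughly clinical Cmax, or from 10 microM where Cmax was unknown, alone and with AhR antagonists. Read-out: percent test/control growth of tumor spheroids containing HUVEC and MSC stromal cells.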

[1] = second compound 0.1 µM, first compound 0.00949 µM
[2] = second compound 0.1 µM, first compound 0.03 µM
[3] = second compound 0.1 µM, first compound 0.0949 µM
[4] = second compound 0.1 µM, first compound 0.3 µM
[5] = second compound 0.316 µM, first compound 0.00949 µM
[6] = second compound 0.316 µM, first compound 0.03 µM
[7] = second compound 0.316 µM, first compound 0.0949 µM
[8] = second compound 0.316 µM, first compound 0.3 µM
[9] = second compound 1 µM, first compound 0.00949 µM
[10] = second compound 1 µM, first compound 0.03 µM
[11] = second compound 1 µM, first compound 0.0949 µM
[12] = second compound 1 µM, first compound 0.3 µM
[13] = second compound 3.16 µM, first compound 0.00949 µM
[14] = second compound 3.16 µM, first compound 0.03 µM
[15] = second compound 3.16 µM, first compound 0.0949 µM
[16] = second compound 3.16 µM, first compound 0.3 µM
[17] = second compound 10 µM, first compound 0.00949 µM
[18] = second compound 10 µM, first compound 0.03 µM
[19] = second compound 10 µM, first compound 0.0949 µM
[20] = second compound 10 µM, first compound 0.3 µM
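Further: spheroids exposed to compounds for seven days.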

Compound: CC1COCCN1c1cc(C2(S(C)(=N)=O)CC2)nc(-c2ccnc3[nH]ccc23)n1 (stereo not given) + Cc1ccccc1N=Nc1ccc(NC(=O)c2ccnn2C)c(C)c1
- IC50 (second compound 0.1 µM): 1870 nM
- IC50 (second compound 0.316 µM): 1700 nM
- IC50 (second compound 1 µM): 1790 nM
- IC50 (second compound 3.16 µM): 1840 nM
- IC50 (second compound 10 µM): 637 nM
- viability, T/C (second compound 0.1 µM, first compound 0.0316 µM): 108%
- viability, T/C (second compound 0.1 µM, first compound 0.1 µM): 102%
- viability, T/C (second compound 0.1 µM, first compound 0.316 µM): 96.3%
- viability, T/C (second compound 0.1 µM, first compound 1 µM): 87%
- viability, T/C (second compound 0.1 µM, first compound 3.16 µM): 19%
- viability, T/C (second compound 0.1 µM, first compound 10 µM): 4.98%
- viability, T/C (second compound 0.316 µM, first compound 0.0316 µM): 103%
- viability, T/C (second compound 0.316 µM, first compound 0.1 µM): 127%
- viability, T/C (second compound 0.316 µM, first compound 0.316 µM): 106%
- viability, T/C (second compound 0.316 µM, first compound 1 µM): 77.9%
- viability, T/C (second compound 0.316 µM, first compound 3.16 µM): 17.9%
- viability, T/C (second compound 0.316 µM, first compound 10 µM): 5.69%
- viability, T/C (second compound 1 µM, first compound 0.0316 µM): 108%
- viability, T/C (second compound 1 µM, first compound 0.1 µM): 117%
- viability, T/C (second compound 1 µM, first compound 0.316 µM): 95%
- viability, T/C (second compound 1 µM, first compound 1 µM): 83.6%
- viability, T/C (second compound 1 µM, first compound 3.16 µM): 17.4%
- viability, T/C (second compound 1 µM, first compound 10 µM): 5.01%
- viability, T/C (second compound 3.16 µM, first compound 0.0316 µM): 90%
- viability, T/C (second compound 3.16 µM, first compound 0.1 µM): 92%
- viability, T/C (second compound 3.16 µM, first compound 0.316 µM): 97.6%
- viability, T/C (second compound 3.16 µM, first compound 1 µM): 85.7%
- viability, T/C (second compound 3.16 µM, first compound 3.16 µM): 17.9%
- viability, T/C (second compound 3.16 µM, first compound 10 µM): 5.33%
- viability, T/C (second compound 10 µM, first compound 0.0316 µM): 56.9%
- viability, T/C (second compound 10 µM, first compound 0.1 µM): 53.3%
- viability, T/C (second compound 10 µM, first compound 0.316 µM): 49.6%
- viability, T/C (second compound 10 µM, first compound 1 µM): 48.2%
- viability, T/C (second compound 10 µM, first compound 3.16 µM): 13.4%
- viability, T/C (second compound 10 µM, first compound 10 µM): 5.82%

Compound: Nc1ncn(C2CC(O)C(CO)S2)c(=O)n1 (stereo not given) + Cc1ccccc1N=Nc1ccc(NC(=O)c2ccnn2C)c(C)c1
- IC50 (second compound 0.1 µM): 206 nM
- IC50 (second compound 0.316 µM): 182 nM
- IC50 (second compound 1 µM): 189 nM
- IC50 (second compound 3.16 µM): 262 nM
- IC50 (second compound 10 µM): 88.2 nM
- viability, T/C (second compound 0.1 µM, first compound 0.000949 µM): 92.7%
- viability, T/C (second compound 0.1 µM, first compound 0.003 µM): 114%
- viability, T/C [1]: 106%
- viability, T/C [2]: 97.3%
- viability, T/C [3]: 70.5%
- viability, T/C [4]: 40.2%
- viability, T/C (second compound 0.316 µM, first compound 0.000949 µM): 121%
- viability, T/C (second compound 0.316 µM, first compound 0.003 µM): 108%
- viability, T/C [5]: 134%
- viability, T/C [6]: 117%
- viability, T/C [7]: 63%
- viability, T/C [8]: 40%
- viability, T/C (second compound 1 µM, first compound 0.000949 µM): 106%
- viability, T/C (second compound 1 µM, first compound 0.003 µM): 131%
- viability, T/C [9]: 135%
- viability, T/C [10]: 116%
- viability, T/C [11]: 62.3%
- viability, T/C [12]: 41.8%
- viability, T/C (second compound 3.16 µM, first compound 0.000949 µM): 96.9%
- viability, T/C (second compound 3.16 µM, first compound 0.003 µM): 104%
- viability, T/C [13]: 106%
- viability, T/C [14]: 101%
- viability, T/C [15]: 69%
- viability, T/C [16]: 47.4%
- viability, T/C (second compound 10 µM, first compound 0.000949 µM): 52.6%
- viability, T/C (second compound 10 µM, first compound 0.003 µM): 50.1%
- viability, T/C [17]: 57.8%
- viability, T/C [18]: 61.1%
- viability, T/C [19]: 46.2%
- viability, T/C [20]: 33.3%

Compound: O=C(C=Cn1cnc(-c2cc(C(F)(F)F)cc(C(F)(F)F)c2)n1)NNc1cnccn1 + Cc1ccccc1N=Nc1ccc(NC(=O)c2ccnn2C)c(C)c1
- IC50 (second compound 0.1 µM): 72.9 nM
- IC50 (second compound 0.316 µM): 71 nM
- IC50 (second compound 1 µM): 68.1 nM
- IC50 (second compound 3.16 µM): 64.8 nM
- IC50 (second compound 10 µM): 40.4 nM
- viability, T/C [1]: 111%
- viability, T/C [2]: 113%
- viability, T/C [3]: 31.6%
- viability, T/C [4]: 4.42%
- viability, T/C (second compound 0.1 µM, first compound 0.949 µM): 2.04%
- viability, T/C (second compound 0.1 µM, first compound 3 µM): 0.74%
- viability, T/C [5]: 114%
- viability, T/C [6]: 121%
- viability, T/C [7]: 27.2%
- viability, T/C [8]: 4.07%
- viability, T/C (second compound 0.316 µM, first compound 0.949 µM): 1.17%
- viability, T/C (second compound 0.316 µM, first compound 3 µM): 0.77%
- viability, T/C [9]: 118%
- viability, T/C [10]: 115%
- viability, T/C [11]: 23.7%
- viability, T/C [12]: 4.28%
- viability, T/C (second compound 1 µM, first compound 0.949 µM): 1.23%
- viability, T/C (second compound 1 µM, first compound 3 µM): 1.12%
- viability, T/C [13]: 99.1%
- viability, T/C [14]: 89.9%
- viability, T/C [15]: 30.1%
- viability, T/C [16]: 4.05%
- viability, T/C (second compound 3.16 µM, first compound 0.949 µM): 1.22%
- viability, T/C (second compound 3.16 µM, first compound 3 µM): 0.73%
- viability, T/C [17]: 54.6%
- viability, T/C [18]: 64.4%
- viability, T/C [19]: 22.7%
- viability, T/C [20]: 3.99%
- viability, T/C (second compound 10 µM, first compound 0.949 µM): 1.13%
- viability, T/C (second compound 10 µM, first compound 3 µM): 0.63%
